Reference: PMC11271967, “An inhibitory mechanism of AasS, an exogenous fatty acid scavenger: Implications for re-sensitization of FAS II antimicrobials” (PLOS Pathogens, 2024)
“Also recorded” adds a separate entry of the source. Where two headings read alike, the source gives them in different places.

Tests used:
AasS [1] = assay: In vitro enzymatic activity of AasS (acyl-ACP formation, conformationally-sensitive urea PAGE, ImageJ semi-quantitation); assay type: biochemical, Vibrio harveyi; conditions: for C10-ACP conversion from C10 substrate, Average: AasS 3 nM, fig. 2E; for activity as substrate of AasS in vitro (ligation with holo-ACP): urea gel
AasS (D411A) = assay: Isothermal titration calorimetry (ITC), AasS (D411A) mutant; assay type: binding, Vibrio harveyi
Procedure: Fig 7 Parallels in binding of AasS to the C10-AMP adenylate intermediate and the C10-AMS inhibitor. Structural visualization for AasS binding an intermediate C10-AMP adenylate (A) and its inhibitor C10-AMS (B). […] C. […] Both AasS enzymatic reaction and conformationally-sensitive gel separation were conducted as described in Fig 2D and 2F. D. In vivo evidence that the three single mutants of AasS (D411A, R426A, and K432A) lose the ability to bypass the physiological requirement of biotin for the bioC isogenic mutant of E. coli on the non-permissive condition. The bacterial viability on M9 defined agar medium was determined as performed in Fig 4E. […] The ITC assays were carried out as we conducted in Fig 3B.
The assays of Isothermal titration calorimetry (ITC) were conducted to address the stoichiometry of AasS binding to its C10-AMS inhibitor and C10-AMP intermediate. Since both malic acid and pimelic acid are not substrates for AasS, the two dicarboxylic acids were assumed as negative controls in our ITC analysis. Using a micro-calorimeter (MicroCal PEAQ-ITC) as recently described for E-C7 with little change, totally 18 titrations (2 μl each at an internal of 2.5 min) proceeded in the cell at room temperature. […] Next, the stoichiometry (N) and dissociation constant (Kd) were calculated. […]

AasS [2] = target: T1, AasS (Vibrio harveyi, UniProt Q00IB3); assay: Isothermal titration calorimetry (ITC), wild-type AasS; assay type: binding; conditions: for binding to AasS in ITC: negative controls
Procedure: The assays of Isothermal titration calorimetry (ITC) were conducted to address the stoichiometry of AasS binding to its C10-AMS inhibitor and C10-AMP intermediate. Since both malic acid and pimelic acid are not substrates for AasS, the two dicarboxylic acids were assumed as negative controls in our ITC analysis. Using a micro-calorimeter (MicroCal PEAQ-ITC) as recently described for E-C7 with little change, totally 18 titrations (2 μl each at an internal of 2.5 min) proceeded in the cell at room temperature. Prior to the titration, AasS protein (~40 μM) was saturated with its ATP cofactor (120 μM) in the cell, and C10-AMS inhibitor (or C10) was kept at 600 μM in the syringe. The titration buffer was composed of 150 mM NaCl, 25 mM Tris-HCl (pH8.0), 2 mM DTT, and 3 mM MgCl2. One set of site model by the MicroCal PEAQ-ITC software enabled plotting the titration curves. Next, the stoichiometry (N) and dissociation constant (Kd) were calculated. It was given as an average ± standard deviation (SD) from three independent trials.

AasS(D411A) = assay: Microscale thermophoresis (MST), AasS(D411A) mutant; assay type: binding, Vibrio harveyi; conditions: D411A 180 nM; C10/ATP mixture 0.15 nM to 5.0 μM
Procedure: (§1) To validate poor binding of AasS(D411A) to C10 fatty acyl adenylate observed in our ITC assays, the relatively-more sensitive approach of microscale thermophoresis (MST) was additionally applied here as Jerabek-Willemsen et al. described with minor alteration. Using the Protein Labeling Kit (Protein Labeling Kit RED-NHS 2nd Generation, Nano Temper Technology), both the wild-type AasS and its D411A mutant were fluorescently labelled in the MST buffer (150 mM NaCl, 25 mM Tris-HCl, 3 mM MgCl2, 0.05% Tween-20, pH 8.0). The ligand C10-AMP used in MST assays was prepared by an equal mixture of C10 and ATP. In general, an NT.115 Monolith instrument (Nano Temper Technology, Germany) was integrated, of which the routine parameters included a RED/LED (20%) excitation power along with 60% laser power for excitation. Then, the protein samples were siphoned into MST Premium Coated capillaries for the determination of binding affinity at room temperature. The final concentrations of different AasS samples were 40 nM for WT, and 180 nM for D411A, respectively. The mixture of C10/ATP was diluted in a gradient (from 0.15 nM to 5.0 μM). Three independent MST experiments were conducted here. The dissociation constants (Kd) were calculated using the software MO. Affinity Analysis v2.3. Of note, this was largely dependent on the KD model with a 1:1 stoichiometry per binding partner.

AasS [3] = target: T1, AasS; assay: Microscale thermophoresis (MST), wild-type AasS; assay type: binding; conditions: AasS 40 nM; C10/ATP mixture 0.15 nM to 5.0 μM
Procedure: as §1

AasS [4] = target: T1, AasS; set-up: method as in PMID 39794554; conditions: cited from earlier work
[5] = system: MenE, an o-succinylbenzoyl-CoA synthetase; conditions: cited from earlier work
[6] = system: AasS-expressing E. coli ΔbioC strain; assay: AasS-based bypass of biotin synthesis, bacterial viability on M9 agar; assay type: cell-based, Escherichia coli; conditions: biotin-deficient M9 medium
From the text: Fig 4 Integrated evidence for the inhibition of AasS action with E-C7 fatty acid by C10-AMS compound. A. Schematic diagram of AasS-catalyzed ligation of E-C7 with holo-ACP recipient to produce E-C7-ACP. […] A representative photograph of three independent trials was given. C. Relatively-quantitative analysis (for the inhibitory efficacy of C10-AMS on AasS-catalyzed E-C7-ACP production. As for AasS reaction (panel B), unlike the three components that are at constant levels, namely (i) AasS (31.25 nM), (ii) E-C7 (600 μM), and (iii) ACP (3 μg), C10-AMS inhibitor was supplemented at varied ratio in relative to the AasS enzyme (ranging from 0:1, 25:1, 50:1, 100:1, 200:1, 300:1, 400:1, to 500:1). The ImageJ software was applied to measure the relative percentage (%) of E-C7 fatty acylation in each AasS reaction. The resultant graphs were plotted from three independent experiments, in which the output was expressed as means ± SD (standard deviations). D. Schematic diagram for C10-AMS inhibition of AasS-based bypass of biotin requirement by the E. coli ΔbioC biotin auxotroph on the non-permissive condition. […] Log-phase cultures in a series of 10-fold dilution (shown in panel on right hand), were spotted on the x-gal-containing M9 agar plates supplemented with C10-AMS inhibitor at varied levels (0, 50, 100, to 500 μM). The addition of x-gal substrate enabled the occurrence of blue colonies for better photographing, and viable colonies were highlighted with yellow arrows.
Given that AasS ligates E-C7 fatty acid with holo-ACP, giving E-C7-ACP, an alternative precursor for bacterial biotin synthesis, plasmid-borne aasS expression in ΔbioC biotin auxotroph strain is assumed to overcome the requirement of the primary BioC step [58, 83]. Apart from its WT, three single mutants of AasS (D411A, R426A, and K432A) were examined in vivo, of which the compromised activity is presumably proportional to the varied viability of the ΔbioC reporter strains on the non-permissive M9 growth condition. To test its inhibitory effect, the C10-AMS inhibitor in a series of dilution was supplemented. […]

T1 sequence (Q00IB3 entry or part of it): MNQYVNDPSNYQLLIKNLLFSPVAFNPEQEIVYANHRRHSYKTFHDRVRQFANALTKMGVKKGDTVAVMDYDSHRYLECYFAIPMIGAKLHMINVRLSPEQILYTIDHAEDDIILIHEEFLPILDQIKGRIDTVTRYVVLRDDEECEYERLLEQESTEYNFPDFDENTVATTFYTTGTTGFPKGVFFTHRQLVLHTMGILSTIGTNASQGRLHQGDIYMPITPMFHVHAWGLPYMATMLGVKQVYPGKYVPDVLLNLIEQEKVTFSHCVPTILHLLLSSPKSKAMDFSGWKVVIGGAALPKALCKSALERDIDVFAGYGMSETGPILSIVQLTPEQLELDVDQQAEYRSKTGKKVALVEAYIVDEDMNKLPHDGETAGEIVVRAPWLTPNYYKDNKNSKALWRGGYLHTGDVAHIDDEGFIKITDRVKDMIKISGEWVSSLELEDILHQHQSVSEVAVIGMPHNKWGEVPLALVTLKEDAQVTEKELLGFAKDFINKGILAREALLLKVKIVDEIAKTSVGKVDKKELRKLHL

## CCCCCCCCCC(=O)O [C10, decanoic acid]
AasS [1]; C10 6 μM
  C10-ACP conversion from C10 substrate, Average: 46.1519
AasS [1]; C10 12 μM
  C10-ACP conversion from C10 substrate, Average: 68.3859
AasS [1]; C10 24 μM
  C10-ACP conversion from C10 substrate, Average: 90.5892
AasS [1]; C10 60 μM
  C10-ACP conversion from C10 substrate, Average: 89.8102
AasS [1]; C10 120 μM
  C10-ACP conversion from C10 substrate, Average: 91.2632
AasS [1]; C10 180 μM
  C10-ACP conversion from C10 substrate, Average: 91.9374
AasS [1]; C10 240 μM
  C10-ACP conversion from C10 substrate, Average: 91.9685
AasS (D411A)
  binding to AasS (D411A) in ITC (words): fails to effectively bind
AasS (D411A); listed as decanoic acid
  binding to AasS (D411A) in ITC (words): does not
AasS [2]
  Kd: 54.4 ± 5.1 nM

## CCCCCCCCCC(=O)OP(=O)(O)OCC1OC(n2cnc3c(N)ncnc32)C(O)C1O (centres unmarked) [C10-AMP, decanoyl-adenylate]
AasS(D411A)
  binding by AasS(D411A) in MST: lose its ability of binding
AasS [3]
  binding by wild-type AasS in MST: efficient binding
AasS [2]; AasS ~40 μM saturated with ATP 120 μM
  stoichiometry (n): 0.77 ± 0.04
AasS [2]; AasS ~40 μM saturated with ATP 120 μM, ligand 600 μM in syringe, room temperature, read-out: dissociation constant (Kd)
  Kd: 64.4 ± 5.2 nM

## CCOC(=O)CCCCCC(=O)O [E-C7, mono-ethyl pimelic acid]
AasS [4]
  binding affinity to AasS: mild affinity

## Nc1ncnc2c1ncn2[C@@H]1O[C@H](COS(=O)(=O)NC(=O)CCC(=O)c2ccccc2C(=O)O)[C@@H](O)[C@H]1O [OSB-AMS]
[5]
  mode of inhibition of MenE: mixed-type inhibitor

## O=C(O)CC(O)C(=O)O (centres unmarked) [malic acid]
AasS [1]
  activity as substrate of AasS in vitro (ligation with holo-ACP): inactive
[6]
  support of AasS-based biotin bypass as sole carbon source: loss of function in supporting bacterial viability; also recorded: cannot bypass biotin requirement
AasS [2]
  binding to AasS in ITC: none of the two dicarboxylic acids; also recorded: without an ability of binding

## O=C(O)CCCCCC(=O)O [pimelic acid]
AasS [1]
  activity as substrate of AasS in vitro (ligation with holo-ACP): inactive
[6]
  support of AasS-based biotin bypass as sole carbon source: loss of function in supporting bacterial viability; also recorded: Failure of AasS-based biotin bypass
AasS [2]
  binding to AasS in ITC: no binding
AasS [2]; listed as pimelate
  binding to AasS in ITC: none of the two dicarboxylic acids
